Experimental findings from PubChem BioAssay (NCI) are described below.

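1) Cells in 96-well plates. 2) Compound, 48 h, 5 concentrations. 3) Linear interpolation between surrounding doses. 4) Unreached endpoint = highest concentration. GI50 is the concentration that inhibits growth by half. TGI is the concentration that stops growth completely.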 Bounds are passed on as bounds.

Common to all, as to assay: NCI-60 cell line screen, 48 h
Assay [1] relates to SW-620 colon.
The subject of assay [2] is M14 melanoma.
The test system of assay [3] is HS 578T breast.
The subject of assay [4] is MALME-3M melanoma.
For assay [5], the system named is K-562 leukemia.
Assay [6] has as its system HOP-92 NSCLC.
Assay [7] has as its system T-47D breast.
The subject of assay [8] is HCC-2998 colon.
The subject of assay [9] is OVCAR-8 ovarian.
The test system of assay [10] is PC-3 prostate.

As for `CC(C)COCC(CN(Cc1ccccc1)c1ccccc1)N1CCCC1` (centres undefined), the GI50 in assay [1] was 3.54 µM; in [2] it was 2.3 µM; in [3], 3.6 µM; in [4], 1.89 µM; in [5], 3.43 µM; in [6], 1.66 µM. The GI50 is 1.74 µM in assay [7], 2.25 µM in assay [8], 3.75 µM in assay [9] and 3.04 µM in assay [10]. For the same molecule, the TGI in assay [1] is 15.2 µM; in assay [2], 5.76 µM; in [3], 18.2 µM; in assay [4], 4.74 µM; in assay [5], 10.3 µM; in [6] it was 6.88 µM. The TGI in assay [7] came to 6.49 µM; in assay [8], 6.16 µM; in assay [9], 14.9 µM; in assay [10], 13.9 µM.

With `CN1C(=O)C(CC(=O)O)NC1=S` (centres undefined), the TGI in [1], in [2], in assay [3], in [4], in assay [5] and in assay [6] was more than 100 µM each time. The TGI in assay [7], in assay [8], in assay [9] and in assay [10] was more than 100 µM throughout.

For `COc1cccc2c1C(=O)c1c(O)c3c(c(O)c1C2=O)C[C@@](O)(C(=O)CO)C[C@@H]3O[C@H]1C[C@H](N)[C@@H](O)[C@H](C)O1`, the TGI turned out to be 7.61 µM in assay [1]; 1.16 µM in assay [2]; 3.3 µM in assay [3]; 0.718 µM in assay [4]; 5.05 µM in [5]; 0.697 µM in [6]. Moreover, the TGI in [7] stood at 3.19 µM; in assay [8] it was 1.29 µM; in [9], 19.5 µM; in [10], 5.32 µM. In addition, the GI50 in [2] was 0.281 µM; in assay [3], 0.257 µM; in assay [4], 0.145 µM; in assay [5], 0.147 µM; in [6] it was 0.0743 µM; in assay [7] it was 0.128 µM. The GI50 in assay [8] was 0.161 µM; in assay [9], 0.256 µM; in assay [10] it was 0.551 µM.

Regarding `CC(C)c1c(O)ccc2c1CCC1C(C)(C)CCCC21C` (centres undefined), the TGI was found to be 40.1 µM in [1]; 30.2 µM in [2]; 57.2 µM in assay [3]; 35.6 µM in assay [4]; 50 µM in [5]; 32.8 µM in [6]. The TGI in assay [7] worked out at 5.75 µM; in assay [8], 37.2 µM; in [9], 31.7 µM; in assay [10], 31.4 µM.

`CNCCNc1c2c(c(NCCNC)c3[nH]ccc13)C(=O)c1ccccc1C2=O`: the GI50 in assay [1] is 0.299 µM; in [2] it was 0.27 µM; in assay [3] it was 0.565 µM; in assay [4], 0.258 µM; in [5] it was 0.126 µM; in [6] it was 0.418 µM. The GI50 is 11.4 µM in assay [7], 0.203 µM in assay [8], 0.0578 µM in [9] and 0.0593 µM in assay [10]. The TGI in [1] is 0.804 µM; in [2], 1.35 µM; in assay [3] it was 1.65 µM; in [4] it was 1.32 µM; in assay [5], more than 100 µM; in assay [6], 2.37 µM. Besides, the TGI in assay [7] was more than 27 µM; in [8], 0.649 µM; in [9] it was 0.393 µM; in assay [10] it was 0.309 µM.

`Cc1cc(=O)[nH]c2cc3c(c4c(n3Cc3ccc(Cl)cc3Cl)CC(C)(C)CC4=O)c(O)c12`: the GI50 in assay [1] is more than 100 µM; in assay [2], 71.3 µM; in assay [3], 49.2 µM; in assay [4], 29.9 µM; in assay [5], more than 100 µM; in [6], 54.2 µM. Moreover, the GI50 in assay [7], in assay [8], in assay [9] and in [10] was more than 100 µM each time. Besides, the TGI in assay [1] is more than 100 µM; in [2], more than 100 µM; in [3] it was more than 100 µM; in assay [4], 75.9 µM; in assay [5], more than 100 µM; in assay [6], more than 100 µM. Also, the TGI in [7], in assay [8], in assay [9] and in assay [10] was more than 100 µM throughout.
